{"source": "patent US20050106639A1", "about": "“Method for quantification of AKT protein expression” (Ventana Medical Systems, Inc., priority 2000, published 2005)", "assay_type_in_all_cases": "cell-based", "key": {"[1]": {"tested_on": "total AKT (AKT-1 plus AKT-2)", "test": "Western blot of activated (phosphorylated) total AKT in HER-2/neu over-expressing cells", "conditions": "SKBR3, BR474, AU565 cells, Heregulin 10 ng/ml or Herceptin 20 mg/ml", "procedure": "(§1) MDA-MB-435 and MDA-MB-435/HER-2 cells were obtained from Dr. Yu at the UTMD Anderson Cancer Center, Houston, Tex. Cells were grown in RPMI 1640 supplemented as above in 8% CO2 at 37° C. Western blotting was done as follows. Cells were lysed in lysis buffer (50 mM Tris-HCl, pH 7.4, 150 mM sodium chloride, 1 mM EDTA, 1% Nonidet P-40, 1 mM sodium orthovanadate, 1 mM sodium fluoride, 1 mM phenylmethylsulfonyl fluoride, 2 ug/ml pepstatin, 2 ug/ml leupeptin, 2 ug/ml aprotinin), centrifuged at 4° C. for 5 min at 6500 g, and protein concentration was determined with a BioRad Protein Assay Kit (BioRad, Hercules, Cailf.). Proteins were separated by electrophoresis using a Bis-Tris NuPAGE system with 1× MOPS running buffer (Novex, San Diego, Cailf.) and transferred to Hybond C-extra membrane (Amersham Pharmacia Biotech, Piscataway, N.J.). Membranes were blocked with non-fat dry milk, incubated with the appropriate antibodies, washed with PBS (phosphate buffered saline) and incubated with horseradish peroxidase-conjugated secondary antibody. […]\n(§2) The activated (phosphorylated) state of total AKT (AKT-1 plus AKT-2) in cells over-expressing HER-2/neu was measured to study the functional significance of c-akt in HER-2/neu over-expressing cells and cancers. […] Activated AKT was determined by antibodies that specifically recognize the phosphorylated state of AKT protein. […]"}, "AKT-1": {"tested_on": "AKT-1", "test": "Immunoprecipitation and anti-phospho-Akt Western blot, AKT-1", "procedure": "as §1, §2"}, "AKT-2": {"tested_on": "AKT-2", "test": "Immunoprecipitation and anti-phospho-Akt Western blot, AKT-2", "procedure": "as §1, §2"}, "[2]": {"conditions": "SKBR3, BR474, AU565 cells, Heregulin 10 ng/ml or Herceptin 20 mg/ml, Western blot"}}, "data": [{"substance": "Heregulin", "values": [{"measurement": "phosphorylation of total AKT", "setting": "[1]", "result": "increased"}, {"measurement": "AKT-1 phosphorylation", "setting": "AKT-1; [2]", "result": "increased"}, {"measurement": "phosphorylated state of AKT-1", "setting": "AKT-1; exposure for 3 days", "result": "down-regulation"}, {"measurement": "level of AKT-2 phosphorylation after treatment", "setting": "AKT-2; [2]", "result": "remained high"}, {"measurement": "phosphorylated state of AKT-2", "setting": "AKT-2; exposure for 3 days", "result": "did not affect"}]}]}
